Assay results from EP2961395B1, “TARGETED NANOPARTICLES” (CALIFORNIA INSTITUTE OF TECHNOLOGY, priority 2013, dated 2014).
Like-named read-outs stand apart in the source and are kept apart here.

What was measured:
BT-474 xenograft tumors = system: BT-474 xenograft tumors
Protocol: Treatments began on day 1. […] All treatments were freshly prepared and given via intravenous tail vein injection. Injections were standardized at 150 µl per 20 g body weight of mice. […] Tumor sizes were recorded three times a week using caliper measurements (length x width^2/2) and health of the animals was continuously monitored. Animals were euthanized when tumor volumes exceeded 1000 mm^3. Six weeks after beginning of the treatment, animals were euthanized by CO2 asphyxiation.

[1] = Plasma pharmacokinetics of free CPT in CD2F1 mice (comparison)
Protocol: A DNA ladder is loaded in Lane 1. […] A DNA ladder is loaded in Lane 1. […] Free CPT injected at 10 mg/kg into CD2F1 mice is shown as comparison. (A) Plasma concentration of polymer bound CPT as a function of time. […] (A) Percent injected dose (ID) of total CPT per gram of tumor, heart, liver, spleen, kidney or lung. (B) Percentage of total CPT in each organ that is unconjugated in tumor, heart, liver, spleen, kidney and lung. (C) Total concentration of CPT in plasma.

MCF-7 = assay: Cytotoxicity assay (CellTiter 96 AQueous One) in MCF-7; assay type: cell-based; settings: Homo sapiens, MCF7; MCF-7 (HER2 -); 72 h; CPT-containing items based on CPT content
Text: (§1) Wells containing untreated cells were used as controls.

MDA-MB-231 = assay: Cytotoxicity assay (CellTiter 96 AQueous One) in MDA-MB-231; assay type: cell-based; settings: Homo sapiens; MDA-MB-231 (HER2 -); 72 h; CPT-containing items based on CPT content
Text: as §1

SKBR-3 = assay: Cytotoxicity assay (CellTiter 96 AQueous One) in SKBR-3; assay type: cell-based; settings: Homo sapiens, SK-BR-3; SKBR-3 (HER2 +); 72 h; CPT-containing items based on CPT content
Text: as §1

BT-474 = assay: Cytotoxicity assay (CellTiter 96 AQueous One) in BT-474; assay type: cell-based; settings: Homo sapiens; BT-474 (HER2 +); 72 h; CPT-containing items based on CPT content
Text: as §1

[2] = pKa determination by absorbance change on titration; assay type: physicochemical; settings: 10^-3 M PBA in 0.1 M PBS, titrated with 1 N NaOH, absorbance at 268 nm
Protocol: The pKa of the synthesized PBA compounds were found by measuring the change in absorbance of PBA as it converted from trigonal (in low pH) to tetrahedral (in high pH) conformation. To a solution of 10^-3 M PBA in 0.1 M PBS, pH 7.4 was titrated 1 N NaOH. pH was recorded and corresponding samples were removed for absorbance measurements at 268 nm. Table 2. pKa and binding constants of PBA compounds
pKa values of the modified PBAs were determined by absorbance changes due to conformational change of PBA from trigonal to tetrahedral form as the pH was increased (Table 2). […] Thus, at physiological pH, most of the PBA was present in the reactive anionic tetrahedral form. Binding constants between PBA and MAP were found by competitive binding with Alizarin Red S in 0.1 M PBS, pH 7.4.

[3] = 80 mg/kg i.v. once per week for 3 weeks
[4] = 8 mg/kg (MAP-CPT on CPT basis) i.v. once per week for 3 weeks

CCc1c2c(nc3ccc(OC(=O)N4CCC(N5CCCCC5)CC4)cc13)-c1cc3c(c(=O)n1C2)COC(=O)[C@]3(O)CC [Irinotecan]
NTRD (number of treatment related death) (BT-474 xenograft tumors; [3]): 1 | Nend (number of animals surviving to end of study) (BT-474 xenograft tumors; [3]): 8/7 | Neuthan (number of animals euthanized due to exceeding tumor size limit of 1000 mm^3) (BT-474 xenograft tumors; [3]): 0 | Nreg to zero (number of animals with tumors regressed to zero at the end of study) (BT-474 xenograft tumors; [3]): 0 | tumor inhibition compared to control group (BT-474 xenograft tumors; [3]): non-significant tumor inhibition

CC[C@@]1(O)C(=O)OCc2c1cc1n(c2=O)Cc2cc3ccccc3nc2-1 [CPT, Camptothecin]
AUC ([1]; CD2F1, mouse, in vivo, 10 mg/kg): 1600 ng·h/mL | injected dose remaining in circulation ([1]; after 8 h, CPT alone at 10 mg/kg): 0.01% | Mean tumor volume (BT-474 xenograft tumors; [4]): 808 mm^3 | Median tumor volume (BT-474 xenograft tumors; [4]): 417 mm^3 | NTRD (number of treatment related death) (BT-474 xenograft tumors; [4]): 4 | Nend (number of animals surviving to end of study) (BT-474 xenograft tumors; [4]): 8/0 | Neuthan (number of animals euthanized due to exceeding tumor size limit of 1000 mm^3) (BT-474 xenograft tumors; [4]): 4 | Nreg to zero (number of animals with tumors regressed to zero at the end of study) (BT-474 xenograft tumors; [4]): 0 | tumor inhibition compared to control group (BT-474 xenograft tumors; [4]): no tumor inhibition | IC50 (MCF-7): 300 nM | IC50 (MDA-MB-231): 100 nM | IC50 (SKBR-3): 30 nM | IC50 (BT-474): 4000 nM

OB(O)c1ccccc1 [PBA, phenylboronic acid]
pKa [2]: 8.8
